Measured values taken from patent US11104672B2, “Polymorphs” (Syngenta Participations AG, priority 2017, dated 2021).

Assay: Stability of polymorphs: stirring in dimethyl carbonate, crystals characterised by DSC and pXRD
Assay type: physicochemical
Conditions: stirred in 5 ml dimethyl carbonate for two days, crystals isolated, air dried
Experimental: Powder X-ray diffraction analysis of solid material was carried out using the Bruker D8 powder diffractometer at room temperature and at relative humidities above 40%. Samples were mounted in Perspex sample holders and the samples flattened. The sample holder was rotated and X-rays were collected from 4° to 34° 2-theta, with a scan time of 25 to 30 minutes depending on the pattern intensity.
DSC was carried out using a Mettler Toledo DSC1. A sample loading of around 5 mg was used and this was heated from 25° C. to 160° C. at a rate of 10° C./minute. The lid of the DSC crucible was pierced to allow the escape of any gas formed during the heating of the sample.
A sample of the polymorph designated Form A(c) was stirred in 5 ml dimethyl carbonate for two days. The crystals were isolated, air dried and characterised by DSC and pXRD.

SMILES: CCN1OC[C@@H](NC(=O)c2ccc(C3=NO[C@@](c4cc(Cl)c(F)c(Cl)c4)(C(F)(F)F)C3)cc2C)C1=O [Form A(c)]
- Polymorphic stability (solid form found after stirring): all of the Form A(c) had converted into Form (A)a
